Measured values as given in PubChem BioAssay (NCI).
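Assay format: 96-well plates, 48-hour exposure. Abbreviation: GI50, concentration required for 50% inhibition of growth. TGI is the concentration that stops growth completely.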

What was measured:
Test in all cases: NCI-60 cell line screen, 48 h
COLO 205 colon = test system: COLO 205 colon
OVCAR-3 ovarian = test system: OVCAR-3 ovarian
UO-31 renal = test system: UO-31 renal
SK-OV-3 ovarian = test system: SK-OV-3 ovarian
PC-3 prostate = test system: PC-3 prostate
NCI-H23 lung = test system: NCI-H23 lung
UACC-62 melanoma = test system: UACC-62 melanoma
CCRF-CEM leukemia = test system: CCRF-CEM leukemia
K-562 leukemia = test system: K-562 leukemia
NCI-H226 lung = test system: NCI-H226 lung
ACHN renal = test system: ACHN renal
RXF 393 renal = test system: RXF 393 renal
MALME-3M melanoma = test system: MALME-3M melanoma
A498 renal = test system: A498 renal
SF-539 CNS = test system: SF-539 CNS
A549 NSCLC = test system: A549 NSCLC
BT-549 breast = test system: BT-549 breast
SK-MEL-28 melanoma = test system: SK-MEL-28 melanoma
SF-268 CNS = test system: SF-268 CNS
NCI/ADR-RES ovarian = test system: NCI/ADR-RES ovarian
RPMI-8226 leukemia = test system: RPMI-8226 leukemia
NCI-H522 lung = test system: NCI-H522 lung
SK-MEL-5 melanoma = test system: SK-MEL-5 melanoma
HS 578T breast = test system: HS 578T breast
SNB-75 CNS = test system: SNB-75 CNS
DU-145 prostate = test system: DU-145 prostate
HT29 colon = test system: HT29 colon
SR leukemia = test system: SR leukemia
M14 melanoma = test system: M14 melanoma
MCF7 breast = test system: MCF7 breast
OVCAR-8 ovarian = test system: OVCAR-8 ovarian
OVCAR-4 ovarian = test system: OVCAR-4 ovarian
CAKI-1 renal = test system: CAKI-1 renal
HCC-2998 colon = test system: HCC-2998 colon
IGROV1 ovarian = test system: IGROV1 ovarian
SNB-19 CNS = test system: SNB-19 CNS
HCT-15 colon = test system: HCT-15 colon
UACC-257 melanoma = test system: UACC-257 melanoma
MOLT-4 leukemia = test system: MOLT-4 leukemia
HL-60(TB) leukemia = test system: HL-60(TB) leukemia
U251 CNS = test system: U251 CNS
786-0 renal = test system: 786-0 renal
MDA-MB-435 = test system: MDA-MB-435
SW-620 colon = test system: SW-620 colon
SN12C renal = test system: SN12C renal
TK-10 renal = test system: TK-10 renal
SF-295 CNS = test system: SF-295 CNS
OVCAR-5 ovarian = test system: OVCAR-5 ovarian
HCT-116 colon = test system: HCT-116 colon
KM12 colon = test system: KM12 colon
HOP-62 NSCLC = test system: HOP-62 NSCLC
MDA-MB-231 breast = test system: MDA-MB-231 breast
T-47D breast = test system: T-47D breast
NCI-H460 lung = test system: NCI-H460 lung

c1ccc2[nH]c(-c3cc(-c4ccc5c(c4)OCO5)n[nH]3)nc2c1
GI50 (COLO 205 colon): 4.78 µM | TGI (COLO 205 colon): 18.5 µM | GI50 (OVCAR-3 ovarian): 3.21 µM | TGI (OVCAR-3 ovarian): 14.6 µM | GI50 (UO-31 renal): 3.98 µM | TGI (UO-31 renal): 16.1 µM | GI50 (SK-OV-3 ovarian): 4.98 µM | TGI (SK-OV-3 ovarian): 17.7 µM | GI50 (PC-3 prostate): 3.64 µM | TGI (PC-3 prostate): 17.7 µM | GI50 (NCI-H23 lung): 4.47 µM | TGI (NCI-H23 lung): 19.3 µM | GI50 (UACC-62 melanoma): 3.08 µM | TGI (UACC-62 melanoma): 14.7 µM | GI50 (CCRF-CEM leukemia): 2.52 µM | TGI (CCRF-CEM leukemia): 22.4 µM | GI50 (K-562 leukemia): 3.83 µM | TGI (K-562 leukemia): 22.1 µM | GI50 (NCI-H226 lung): 4.2 µM | TGI (NCI-H226 lung): 21 µM | GI50 (ACHN renal): 4.33 µM | TGI (ACHN renal): 19 µM | GI50 (RXF 393 renal): 2.36 µM | TGI (RXF 393 renal): 12.1 µM | GI50 (MALME-3M melanoma): 2.33 µM | TGI (MALME-3M melanoma): 13.2 µM | GI50 (A498 renal): 1.7 µM | TGI (A498 renal): 12.8 µM | GI50 (SF-539 CNS): 2.71 µM | TGI (SF-539 CNS): 14.1 µM | GI50 (A549 NSCLC): 4.23 µM | TGI (A549 NSCLC): 19.7 µM | GI50 (BT-549 breast): 2.12 µM | TGI (BT-549 breast): 13 µM | GI50 (SK-MEL-28 melanoma): 4.85 µM | TGI (SK-MEL-28 melanoma): 18.5 µM | GI50 (SF-268 CNS): 4.77 µM | TGI (SF-268 CNS): 22.4 µM | GI50 (NCI/ADR-RES ovarian): 4.08 µM | TGI (NCI/ADR-RES ovarian): 27.1 µM | GI50 (RPMI-8226 leukemia): 1.14 µM | TGI (RPMI-8226 leukemia): 7.16 µM | GI50 (NCI-H522 lung): 1.98 µM | TGI (NCI-H522 lung): 10.3 µM | GI50 (SK-MEL-5 melanoma): 1.53 µM | TGI (SK-MEL-5 melanoma): 3.55 µM | GI50 (HS 578T breast): 3.8 µM | TGI (HS 578T breast): 52.3 µM | GI50 (SNB-75 CNS): 10.1 µM | TGI (SNB-75 CNS): 23.7 µM | GI50 (DU-145 prostate): 7.27 µM | TGI (DU-145 prostate): 22 µM | GI50 (HT29 colon): 3.66 µM | TGI (HT29 colon): 15 µM | GI50 (SR leukemia): 3.37 µM | TGI (SR leukemia): 16.8 µM | GI50 (M14 melanoma): 2.19 µM | TGI (M14 melanoma): 16.7 µM | GI50 (MCF7 breast): 3.78 µM | TGI (MCF7 breast): 18.3 µM | GI50 (OVCAR-8 ovarian): 3.97 µM | TGI (OVCAR-8 ovarian): 18 µM | GI50 (OVCAR-4 ovarian): 2.16 µM | TGI (OVCAR-4 ovarian): 12 µM | GI50 (CAKI-1 renal): 2.74 µM | TGI (CAKI-1 renal): 17.7 µM | GI50 (HCC-2998 colon): 3.74 µM | TGI (HCC-2998 colon): 14 µM | GI50 (IGROV1 ovarian): 3.66 µM | TGI (IGROV1 ovarian): 15.9 µM | GI50 (SNB-19 CNS): 5.92 µM | TGI (SNB-19 CNS): 25.6 µM | GI50 (HCT-15 colon): 3.86 µM | TGI (HCT-15 colon): 20.3 µM | GI50 (UACC-257 melanoma): 6 µM | TGI (UACC-257 melanoma): 23.2 µM | GI50 (MOLT-4 leukemia): 2.68 µM | TGI (MOLT-4 leukemia): 20.9 µM | GI50 (HL-60(TB) leukemia): 2.27 µM | TGI (HL-60(TB) leukemia): 20.2 µM | GI50 (U251 CNS): 2.37 µM | TGI (U251 CNS): 14.4 µM | GI50 (786-0 renal): 4.58 µM | TGI (786-0 renal): 17.4 µM | GI50 (MDA-MB-435): 3.12 µM | TGI (MDA-MB-435): 15.6 µM | GI50 (SW-620 colon): 5.87 µM | TGI (SW-620 colon): 21.4 µM | GI50 (SN12C renal): 3.73 µM | TGI (SN12C renal): 21.3 µM | GI50 (TK-10 renal): 10.9 µM | TGI (TK-10 renal): 23.8 µM | GI50 (SF-295 CNS): 3.24 µM | TGI (SF-295 CNS): 14.6 µM | GI50 (OVCAR-5 ovarian): 14.9 µM | TGI (OVCAR-5 ovarian): 34.3 µM | GI50 (HCT-116 colon): 6.36 µM | TGI (HCT-116 colon): 25.4 µM | GI50 (KM12 colon): 1.75 µM | TGI (KM12 colon): 13.2 µM | GI50 (HOP-62 NSCLC): 8.46 µM | TGI (HOP-62 NSCLC): 21.8 µM | GI50 (MDA-MB-231 breast): 4.12 µM | TGI (MDA-MB-231 breast): 20.2 µM | GI50 (T-47D breast): 3.32 µM | TGI (T-47D breast): 16.2 µM | GI50 (NCI-H460 lung): 4.57 µM | TGI (NCI-H460 lung): 17.7 µM
